Assay results reported in ChEMBL document CHEMBL1149902, “Steroidal triglycosides, kurilensosides A, B, and C, and other polar steroids from the Far Eastern starfish Hippasteria kurilensis” (2008).

Tests used:
Assay type in all cases: functional
[1] = test system: Mesocentrotus nudus; assay: Inhibition of Strongylocentrotus nudus egg fertilization by Strongylocentrotus nudus sperm
[2] = test system: Mesocentrotus nudus; assay: Inhibition of Strongylocentrotus nudus egg fertilization by Strongylocentrotus nudus sperm at 13 uM
[3] = test system: Mesocentrotus nudus; assay: Inhibition of Strongylocentrotus nudus egg fertilization by Strongylocentrotus nudus sperm at 55 uM
[4] = test system: Mesocentrotus nudus; assay: Inhibition of Strongylocentrotus nudus egg fertilization by Strongylocentrotus nudus sperm at 67 uM

SMILES	EC100 [1]	inhibition at 55 µM [3]	other results
CC(C)[C@@H](O)/C=C/[C@@H](C)[C@H]1C[C@@H](O)C2[C@@]3(O)C(CC[C@@]21C)[C@@]1(C)CC[C@H](O)[C@H](O)C1[C@@H](OS(=O)(=O)[O-])[C@H]3O.[Na+] (stereo partly specified)	11 ×10⁻⁵ M	–	–
CC(C)[C@@H](O)CC[C@@H](C)[C@H]1C[C@H](O)[C@@H]2[C@]1(C)CC[C@H]1[C@@]2(O)C[C@@H](O)C2[C@@H](O)[C@@H](O)CC[C@@]21C (stereo partly specified)	–	–	inhibition at 13 µM [2]: 100%
CO[C@H]1[C@H](O[C@H]2CC[C@@]3(C)C([C@H](O)C[C@@]4(O)[C@@H]5[C@@H](O)C[C@H]([C@H](C)CC[C@H](O[C@@H]6O[C@@H](CO)[C@H](OS(=O)(=O)[O-])[C@H]6O[C@@H]6O[C@@H](CO)[C@H](O)[C@H]6O)C(C)C)[C@@]5(C)CC[C@@H]43)[C@H]2O)OC[C@@H](O)[C@@H]1O.[Na+] (stereo partly specified) [KURILENSOSIDE A]	8.9 ×10⁻⁵ M	–	–
CO[C@H]1[C@H](O[C@H]2CC[C@@]3(C)C([C@H]2O)[C@@H](O)[C@@H](O)[C@@]2(O)[C@@H]4[C@H](O)C[C@H]([C@H](C)CC[C@H](O[C@@H]5O[C@@H](CO[C@H]6OC[C@H](O)[C@@H](O)[C@@H]6O)[C@H](O)[C@H]5O)C(C)C)[C@@]4(C)CC[C@@H]23)OC[C@@H](OC)[C@@H]1O (stereo partly specified) [KURILENSOSIDE B]	–	100%	–
CO[C@H]1[C@H](OC[C@@H]2O[C@@H](O[C@@H](CC[C@@H](C)[C@H]3C[C@@H](O)[C@@H]4[C@]3(C)CC[C@H]3[C@@]4(O)[C@H](O)[C@H](O)C4[C@@H](O)[C@@H](O[C@@H]5OC[C@@H](O)[C@H](O)[C@H]5OC)CC[C@@]43C)C(C)C)[C@H](O)[C@H]2O)OC[C@@H](O)[C@@H]1O (stereo partly specified) [KURILENSOSIDE C]	–	100%	–
CO[C@H]1[C@H](OC[C@@H]2O[C@@H](O[C@@H](CC[C@@H](C)[C@H]3C[C@@H](O)[C@@H]4[C@]3(C)CC[C@H]3[C@@]4(O)C[C@H](O)C4[C@@H](O)[C@@H](O)CC[C@@]43C)C(C)C)[C@H](O)[C@H]2O)OC[C@@H](O)[C@@H]1O (stereo partly specified) [KURILENSOSIDE D]	–	–	inhibition at 67 µM [4]: 100%
